Laboratory results from patent US20060281695A1, “Control of parasites in animals by N-[(phenyloxy)phenyl]-1,1,1-trifluoromethanesulfonamide and N-[(phenylsulfanyl)phenyl]-1,1,1-trifluoromethanesulfonamide derivatives” (priority 2005, published 2006).

Tests used:
[1] = test system: cat flea (Ctenocephalides felis); experiment: Ctenocephalides felis adulticide assay: single dose screen on treated glass surface (% mortality at 1.26 μg/cm^2, 24 hours); format: in vivo
[2] = test system: Haemonchus contortus; experiment: Haemonchus contortus larvacidal (larval development) assay, LD99; format: in vitro
Experimental: The LD99 value is the dose, expressed as […], that was required to kill 99% of a sample of Haemonchus contortus.
a) Haemonchus Contortus Larvacidal Assay:
The effect of compounds on larval development was determined in the assay described by Gill et al. [International Journal of Parasitology 25:463-470 (1995)]. Briefly, in this assay, nematode eggs are applied to the surface of an agar matrix containing the test compound and then allowed to develop through to the L3, infective stage (6 days). The wells for each dilution of every compound (from highest to lowest concentration) are inspected to determine the well number corresponding to the lowest concentration at which development is inhibited in 99% of the nematode larvae present (LD99). Because well numbers correspond to a two-fold serial dilution of each compound, a titre (dilution factor) is generated as 2^n−1, where n is the well number. By dividing the highest concentration tested by the titre an LD99 value can be obtained, representing the concentration required to inhibit development in 99% of the nematode larvae present. The compounds supplied as solid and viscous liquids are dissolved in DMSO. Twelve serial one-half dilutions in DMSO solution are prepared from the stock solution, each of which is then diluted 1/5 with water. Aliquots (10 μl) of each dilution are transferred to the bioassay plates to give a final concentration range of 0.024 to 50 μg/ml.
(§1) In Table 7, provided below, are listed the Haemonchus contortus LD99 values (measured in micrograms/mL), the Ctenocephalides felis rapid screening values (measured in % mortality), the Ctenocephalides felis LC50 values (measured in micrograms/cm^2) and the Rhipicephalus sanguineus rapid screening values (measured in % mortality) for selected compounds in accordance with the present invention.

[3] = test system: Brown Dog Tick (Rhipicephalus sanguineus); experiment: Topical application on brown dog ticks, single dose screen (% mortality at 24 hours); format: in vivo; conditions: adult brown dog ticks, topical 1 μL in acetone on abdomen, single dose 10 μg per tick
Experimental: d) Topical Application On Brown Dog Ticks (Rhipicephalus sanguineus)
The aim of the test is to determine the presence of significant acaricidal activity in sample compounds or formulations when applied topically on brown dog ticks. A tick is defined as dead if it gives no apparent response when: (i) touched lightly and (ii) then observed for 1 minute. To assess the experimental compound for acaricidal activity, a single dose level is chosen based on known results from previous experiments with a commercially available active reference compound.
In the present example, both permethrin and fipronil were employed as reference compounds. The insect species tested was the Brown Dog Tick (Rhipicephalus sanguineus). Mixed sex adult ticks were used for tests. The strain used was cultured from a field strain and supplied as unfed adult ticks (mixed sex). Ticks were maintained in controlled conditions (temp. 18°±2° C., humidity 75±5% RH).
Test compounds (formulations or active ingredients) were stored in a refrigerator (5±1° C.) unless otherwise specified. The temperature was maintained at 25±1° C. and the humidity was ambient. The screening dose chosen was higher than that known kill 90% of insects (LD90) using the reference compound. In the case of topical application of active compounds on adult ticks, the reference compound was fipronil and the dose chosen was 10 μg of active per tick (=10 μg of fipronil/1 μl of acetone). Ticks were each treated on the abdomen with 1 μL of a single dose level of test sample in acetone; ten ticks were treated with solvent only (acetone) in each test. Tests were replicated 4 times (total of 40 ticks treated). Ticks were held in recovery containers maintained under appropriate rearing conditions for 24 hours. Mortality resulting from the treatments was recorded at 24 hours. Pooled 24 hour mortality data were converted to percentages.
as §1

[4] = test system: cat flea (Ctenocephalides felis); experiment: Ctenocephalides felis adulticide assay: dose response on treated glass surface (LC50, 24 hours); format: in vivo; conditions: adult cat fleas, 24 h mortality, probit analysis
Experimental: The LC50 value is the concentration, expressed as μg/cm^2, that was required to kill 50% of the sample of cat fleas on contact with the tested compound. Certain tests are also reported as the percent of a sample of cat fleas that were killed at a concentration of 1.26 μg/cm^2 (“% mortality”), for the compounds tested in this way.
c) Ctenocephalides felis Adulticide Assay: C. felis dose response The purpose of this example is to determine the LC50 when cat fleas are contacted with a glass surface treated with sample compounds or formulations prepared as described above. Mortality of fleas is defined as follows: fleas are considered dead if they don't move or are on their sides and unable to walk or right themselves. LC50: Lethal Concentration 50— concentration of glass surface treatment at which 50% of the cat fleas are killed.
The test species employed was the cat flea (Ctenocephalides felis). The strain used was obtained from external suppliers as pupae and held in the laboratory under testing conditions until the adults had emerged. Fifteen (15) fleas were used in a minimum of four replicates for each dose level (total of 60 fleas per dose level). The insects were selected to be in the adult life stage, aged between 3 and 7 days post emergence.
The compounds to be tested were dissolved in acetone just prior to testing. Samples of compounds were stored in a refrigerator (5±1° C.) unless otherwise specified. During the mortality testing, the temperature was maintained at 25±1° C. Humidity was maintained at 75±5%. The base (area=159 mm^2) of a 100 mL glass Erlenmeyer (conical) flask provided the treatment surface. Flasks were pre-treated with Coatasil™ glass treatment to maximise bio-availability of test compounds by preventing them from binding to the glass surface.
Six dose levels (concentrations) of test sample, in the form of a serial dilution, were derived from a pilot study and covered a range that produced very low to very high mortality. The base of the 100 mL Erlenmeyer flask was treated with 0.5 mL of test sample in acetone and gently swirled. This volume was sufficient to cover the base of the flask. Flasks were left to dry for 24 hours before flea exposure. Adult cat fleas were lightly anaesthetised by cooling and then placed into a sorting chamber, which allowed fleas to revive and jump into the Erlenmeyer flasks. Fifteen (15) adult cat fleas were collected in each flask. The top of the flasks were then covered in Parafilm™ and small holes made to allow gas exchange. A 0.5 mL volume of acetone was applied to the base of an Erlenmeyer flask and the testing proceeded in the same manner described above. Cat fleas in the treatment containers were held under testing conditions for 24 hours. Mortality resulting from the treatments was recorded at 24 hours. […] 3rd ed. Cambridge Univ. Press, London (1971)].
as §1

| Structure (SMILES) | Ctenocephalides felis Mortality (%) 24 h ([1]; in vivo) [%] | Haemonchus contortus LD99 [2] [µg/mL] | Rhipicephalus sanguineus Mortality (%) 24 h [3] [%] | Ctenocephalides felis LC50 [4] [μg/cm^2] | mortality at 1.26 µg/cm2, 1.26 µg/cm2 ([1]; Ctenocephalides felis, 24 h, read-out: Ctenocephalides felis Mortality (%) 24 h) [%] |
| --- | --- | --- | --- | --- | --- |
| O=S(=O)(Nc1ccc(Cl)cc1Oc1ccccc1F)C(F)(F)F [Compound 14] | 100 | 13.0 | 98 | 0.05 | – |
| O=S(=O)(Nc1ccc(Cl)cc1Sc1ccc(Cl)cc1)C(F)(F)F [Compound 12, N-[4-Chloro-2-((4-chlorophenyl)sulfanyl)phenyl]-1,1,1-trifluoromethanesulfonamide] | – | 2.8 | 50 | 0.15 | 100 |
